In ChEMBL document CHEMBL1909046, “DrugMatrix in vitro pharmacology data”:
pIC50, pKi: −log10 of the molar value.

Columns and labels:
[1] = molecular target: Histamine H2 receptor (Homo sapiens, UniProt P25021); assay type: cell membranes, CHO-K1, Membrane; details: for IC50: cho-k1; as to all read-outs here: in other assays of this panel Not Active means under 50% inhibition at 10 µM
[2] = DRUGMATRIX: GABAA, Flunitrazepam, Central radioligand binding (ligand: [3H] Flunitrazepam); assay type: cell membranes, Rattus norvegicus, Wistar, Brain, Membrane; details: Not Active = under 50% inhibition at 10 µM
[3] = molecular target: T1, Neuropeptide Y receptor type 1 (Homo sapiens, UniProt P25929); assay type: cell membranes, Membrane; details: sk-n-mc; also: in other assays of this panel Not Active means under 50% inhibition at 10 µM
T1 sequence (P25929 whole entry): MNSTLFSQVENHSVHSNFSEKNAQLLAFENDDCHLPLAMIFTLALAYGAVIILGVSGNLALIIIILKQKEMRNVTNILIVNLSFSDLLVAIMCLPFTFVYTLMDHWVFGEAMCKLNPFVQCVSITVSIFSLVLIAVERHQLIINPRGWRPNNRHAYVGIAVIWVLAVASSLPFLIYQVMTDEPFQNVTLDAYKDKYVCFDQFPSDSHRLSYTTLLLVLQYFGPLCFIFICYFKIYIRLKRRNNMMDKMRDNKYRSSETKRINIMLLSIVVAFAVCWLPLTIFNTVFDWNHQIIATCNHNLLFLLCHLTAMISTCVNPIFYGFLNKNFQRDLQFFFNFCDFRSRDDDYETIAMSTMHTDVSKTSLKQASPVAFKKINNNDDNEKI

[4] = molecular target: T2, Cathepsin G (Homo sapiens, UniProt P08311); assay: biochemical; assay type: tissue-based, Neutrophil; details: neutrophil;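 also: inhibition of Cathepsin G enzyme activity, tested on an AMC-conjugated peptide substrate; in other assays of this panel Not Active means under 50% inhibition at 10 µM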
T2 sequence (P08311 whole entry): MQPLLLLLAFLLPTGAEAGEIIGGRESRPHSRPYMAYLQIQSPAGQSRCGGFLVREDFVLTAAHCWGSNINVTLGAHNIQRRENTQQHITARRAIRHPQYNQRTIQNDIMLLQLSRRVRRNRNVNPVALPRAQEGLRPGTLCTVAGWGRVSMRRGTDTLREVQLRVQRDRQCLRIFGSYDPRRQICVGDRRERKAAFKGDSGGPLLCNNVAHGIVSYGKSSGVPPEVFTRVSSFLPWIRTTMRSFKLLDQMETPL

[5] = DRUGMATRIX: Tumor Necrosis Factor (TNF), Non-Selective radioligand binding (ligand: [125I] TNF-alpha); assay type: cell membranes, Membrane; details: u-937; Not Active = under 50% inhibition at 10 µM
[6] = molecular target: T3, C-X-C chemokine receptor type 1 (Homo sapiens, UniProt P25024); also: in other assays of this panel Not Active means under 50% inhibition at 10 µM
T3 sequence (P25024 whole entry): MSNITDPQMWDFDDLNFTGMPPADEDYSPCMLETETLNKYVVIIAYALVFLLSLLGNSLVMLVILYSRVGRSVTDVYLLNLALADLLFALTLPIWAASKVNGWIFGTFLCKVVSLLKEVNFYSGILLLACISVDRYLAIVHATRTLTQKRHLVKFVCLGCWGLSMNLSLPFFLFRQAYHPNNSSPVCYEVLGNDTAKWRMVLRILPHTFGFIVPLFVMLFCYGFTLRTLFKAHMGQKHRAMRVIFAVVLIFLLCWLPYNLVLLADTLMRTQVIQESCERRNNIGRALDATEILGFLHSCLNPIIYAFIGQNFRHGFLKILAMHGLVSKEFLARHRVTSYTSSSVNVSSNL

[7] = molecular target: T4, Polyunsaturated fatty acid lipoxygenase ALOX15 (Oryctolagus cuniculus, UniProt P12530); assay: biochemical; assay type: tissue-based, Reticulocytes; details: reticulocytes
T4 sequence (P12530 whole entry): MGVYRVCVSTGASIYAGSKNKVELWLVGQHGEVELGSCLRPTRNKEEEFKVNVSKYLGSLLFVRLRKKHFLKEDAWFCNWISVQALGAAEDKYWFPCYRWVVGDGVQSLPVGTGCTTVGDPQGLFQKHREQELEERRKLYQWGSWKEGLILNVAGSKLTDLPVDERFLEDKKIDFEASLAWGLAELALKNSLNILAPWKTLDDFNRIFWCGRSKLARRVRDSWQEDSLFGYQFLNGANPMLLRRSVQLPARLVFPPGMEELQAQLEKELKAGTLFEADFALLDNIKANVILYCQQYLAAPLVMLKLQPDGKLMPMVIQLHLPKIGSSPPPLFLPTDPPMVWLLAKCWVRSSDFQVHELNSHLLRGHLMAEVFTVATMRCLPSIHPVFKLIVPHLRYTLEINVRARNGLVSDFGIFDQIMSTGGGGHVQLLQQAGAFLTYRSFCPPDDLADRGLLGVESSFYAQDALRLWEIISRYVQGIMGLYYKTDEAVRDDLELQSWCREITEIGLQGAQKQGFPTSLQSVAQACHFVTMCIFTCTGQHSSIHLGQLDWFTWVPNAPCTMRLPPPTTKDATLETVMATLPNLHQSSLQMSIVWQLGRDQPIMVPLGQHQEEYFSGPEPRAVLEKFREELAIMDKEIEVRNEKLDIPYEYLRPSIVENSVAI

Chain of Histamine H2 receptor (P25021 whole entry): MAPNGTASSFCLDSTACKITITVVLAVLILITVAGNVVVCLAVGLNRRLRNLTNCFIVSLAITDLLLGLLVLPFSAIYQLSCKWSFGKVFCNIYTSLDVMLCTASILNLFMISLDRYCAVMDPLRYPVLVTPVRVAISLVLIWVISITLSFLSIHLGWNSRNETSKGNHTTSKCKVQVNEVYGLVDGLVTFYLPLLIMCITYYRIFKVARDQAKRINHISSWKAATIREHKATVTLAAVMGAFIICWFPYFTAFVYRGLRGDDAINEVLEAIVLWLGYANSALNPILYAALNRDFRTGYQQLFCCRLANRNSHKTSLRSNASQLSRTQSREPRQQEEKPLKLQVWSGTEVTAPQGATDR

| SMILES | IC50 [1] | IC50 [2] | Ki [2] | IC50 [3] | IC50 [4] | IC50 [5] | Ki [5] | IC50 [6] | IC50 [7] | pIC50 ([2]; read-out: IC50) | pKi ([2]; read-out: Ki) | pIC50 ([1]; read-out: IC50) | pKi ([1]; read-out: Ki) |
| --- | --- | --- | --- | --- | --- | --- | --- | --- | --- | --- | --- | --- | --- |
| CC(N)Cc1c[nH]c2ccc(OCc3cccs3)cc12 (centres undefined) [BW-723C86] | Not Active | Not Active | Not Active | Not Active | Not Active | Not Active | Not Active | Not Active | Not Active |  |  |  |  |
| O=C(O)COC(=O)Cc1ccccc1Nc1c(Cl)cccc1Cl [ACECLOFENAC] | Not Active | Not Active | Not Active | Not Active | Not Active | Not Active | Not Active | Not Active | Not Active |  |  |  |  |
| COC(=O)Nc1nc2ccc(Sc3ccccc3)cc2[nH]1 [FENBENDAZOLE] | Not Active | Not Active | Not Active | Not Active | Not Active | Not Active | Not Active | Not Active | Not Active |  |  |  |  |
| Cc1c(N)nc([C@H](CC(N)=O)NC[C@H](N)C(N)=O)nc1C(=O)N[C@H](C(=O)N[C@H](C)[C@@H](O)[C@H](C)C(=O)N[C@H](C(=O)NCCc1nc(-c2nc(C(=O)NCCC[S+](C)C)cs2)cs1)[C@@H](C)O)[C@@H](O[C@@H]1O[C@@H](CO)[C@@H](O)[C@H](O)[C@@H]1O[C@H]1O[C@H](CO)[C@@H](O)[C@H](OC(N)=O)[C@@H]1O)c1c[nH]cn1.[Br-] [BLEOMYCIN A2] | Not Active | Not Active | Not Active | Not Active | Not Active | Not Active | Not Active | Not Active | Not Active |  |  |  |  |
| C#C[C@]1(O)CC[C@H]2[C@@H]3CCC4=CC(=O)CC[C@@H]4[C@H]3CC[C@@]21C [NORETHINDRONE] | Not Active |  |  | Not Active | Not Active | Not Active | Not Active | Not Active | Not Active | 4.87 | 4.96 |  |  |
| CC(CN1c2ccccc2Sc2ccccc21)N(C)C (centres undefined) [PROMETHAZINE] |  | Not Active | Not Active | Not Active | Not Active | Not Active | Not Active | Not Active | Not Active |  |  | 5.93 | 5.94 |
| COc1cc(NC(C)CCCN)c2ncccc2c1 (centres undefined) [PRIMAQUINE] | Not Active | Not Active | Not Active | Not Active | Not Active | Not Active | Not Active | Not Active | Not Active |  |  |  |  |
| CCCCCCNC(=O)n1cc(F)c(=O)[nH]c1=O [CARMOFUR] | Not Active | Not Active | Not Active | Not Active | Not Active | Not Active | Not Active | Not Active | Not Active |  |  |  |  |
| Cc1cc(C(C)(C)C)c(O)c(C)c1CC1=NCCN1 [OXYMETAZOLINE] | Not Active | Not Active | Not Active | Not Active | Not Active | Not Active | Not Active | Not Active | Not Active |  |  |  |  |
| O=c1[nH]c2ccccc2c2ccccc12 | Not Active | Not Active | Not Active | Not Active | Not Active | Not Active | Not Active | Not Active | Not Active |  |  |  |  |
| C=C(Cl)Cl [1,1-DICHLOROETHENE] | Not Active | Not Active | Not Active | Not Active | Not Active | Not Active | Not Active | Not Active | Not Active |  |  |  |  |
| CC(=O)[C@]1(O)Cc2c(O)c3c(c(O)c2[C@@H](O[C@H]2C[C@H](N)[C@H](O)[C@H](C)O2)C1)C(=O)c1ccccc1C3=O [IDARUBICIN] | Not Active | Not Active | Not Active | Not Active | Not Active | Not Active | Not Active | Not Active | Not Active |  |  |  |  |
| Oc1ccccc1 [PHENOL] | Not Active | Not Active | Not Active | Not Active | Not Active | Not Active | Not Active | Not Active | Not Active |  |  |  |  |
| O=C(Nc1ccc(Cl)c(Cl)c1)c1cc(Cl)cc(Cl)c1O [3,3',4',5-TETRACHLOROSALICYLANILIDE] | Not Active | Not Active | Not Active | Not Active | Not Active | Not Active | Not Active | Not Active | Not Active |  |  |  |  |
| CC(=O)Nc1ccc2c(c1)Cc1ccccc1-2 [2-ACETYLAMINOFLUORENE] | Not Active | Not Active | Not Active | Not Active | Not Active | Not Active | Not Active | Not Active | Not Active |  |  |  |  |
| C[N+](C)(C)CCOC(N)=O.[Cl-] [CARBACHOL] | Not Active | Not Active | Not Active | Not Active | Not Active | Not Active | Not Active | Not Active | Not Active |  |  |  |  |
| Oc1ncnc2[nH]ncc12 [ALLOPURINOL] | Not Active | Not Active | Not Active | Not Active | Not Active | Not Active | Not Active | Not Active | Not Active |  |  |  |  |
